Assay results: the supplement of paper PMC12317010
Structures can show the parent of a compound that is named as a salt.

Assay: collision cross section in nitrogen (drift tube, single-field); higher = larger gas-phase ion size
[1] = ion type: [M+Na], ion source: ESI, ion mode: Positive
[2] = ion type: [M-H], ion source: ESI, ion mode: Negative
[3] = ion type: [M+H], ion source: APCI, ion mode: Positive
[4] = ion type: [M+H], ion source: ESI, ion mode: Positive
[5] = ion type: [M+], ion source: APCI, ion mode: Positive
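Note: chemical standards at 10 µM analysed by drift tube IMS-QTOF MS in about 3.95 torr nitrogen, mean of duplicate injections differing ≤1%, mass error below 10 ppm.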

Row | collision cross section in nitrogen [1] [Å²] | collision cross section in nitrogen [2] [Å²] | collision cross section in nitrogen [3] [Å²] | collision cross section in nitrogen [4] [Å²] | SMILES | other results
1 | 151.8 | – | – | – | CCCCCCOCCOCCO [2-[2-(Hexyloxy)ethoxy]ethanol] | –
2 | – | 116.1 | – | – | Oc1ccccc1O [1,2-Benzenediol] | –
3 | – | 125.5 | – | – | CC(=O)c1ccc(O)cc1 [4-Hydroxyacetophenone] | –
4 | 193.2 | – | 185.8 | 185.7 | Clc1ccc(COC(Cn2ccnc2)c2ccc(Cl)cc2Cl)cc1 (stereo not drawn) [Econazole nitrate] | –
5 | 231.4 | 228.4 | 229.1 | 229.7 | CC(C)c1c(C(=O)Nc2ccccc2)c(-c2ccccc2)c(-c2ccc(F)cc2)n1CC[C@@H](O)C[C@@H](O)CC(=O)O [Atorvastatin] | –
6 | 193.7 | – | 186.2 | 185.8 | c1ccc2sc(SN(C3CCCCC3)C3CCCCC3)nc2c1 [N,N-Dicyclohexyl-2-benzothiazolesulfenamide] | –
7 | – | – | – | 146.2 | NNc1nc(-c2ccc(N)cc2)cs1 [2-Hydrazino-4-(4-aminophenyl) thiazole] | –
8 | – | 224.4 | – | – | CC(c1cc(C(C)(C)C)cc(C(C)(C)C)c1O)c1cc(C(C)(C)C)cc(C(C)(C)C)c1O [Tetrabutyl ethylidenebisphenol] | –
9 | 223.6 | – | 216.1 | 216.2 | CNC(=O)[C@H]1O[C@@H](n2cnc3c(NCc4cc(Cl)ccc4OCc4cc(C)no4)ncnc32)[C@H](O)[C@@H]1N | –
10 | 183.7 | – | – | – | CCCCCCCCCCCCCC(=O)OCC(O)CO (racemic) [(+/-)-2,3-Dihydroxypropyl tetradecanoate] | –
11 | – | 148.3 | – | – | CCCCNS(=O)(=O)c1ccccc1 [N-Butylbenzenesulfonamide] | –
12 | 175.4 | – | – | – | CCOC(=O)CC(CC(=O)OCC)(OC(C)=O)C(=O)OCC [Citric acid, triethyl ester, acetate] | –
13 | 210.8 | – | 186.4 | – | C[C@]12C=CC(=O)C=C1CC[C@@H]1[C@@H]2[C@@H](O)C[C@@]2(C)[C@H]1CC[C@]2(O)C(=O)CO [Prednisolone] | –
14 | 276.8 | 269.7 | – | – | C[C@H]1O[C@@H](O[C@H]2[C@@H](O)C[C@H](O[C@H]3[C@@H](O)C[C@H](O[C@H]4CC[C@@]5(C)[C@H](CC[C@@H]6[C@@H]5C[C@@H](O)[C@]5(C)[C@@H](C7=CC(=O)OC7)CC[C@]65O)C4)O[C@@H]3C)O[C@@H]2C)C[C@H](O)[C@@H]1O [Digoxin] | –
15 | 163.2 | – | 158.6 | 160.1 | O=c1n(CC2CO2)c(=O)n(CC2CO2)c(=O)n1CC1CO1 (stereo not drawn) [Tris(2,3-epoxypropyl)isocyanurate] | –
16 | – | 142.9 | – | – | Oc1ccccc1Cc1ccccc1O [2,2′-Methylenebis[phenol]] | –
17 | – | 192.5 | – | – | O=S(=O)(O)c1cc(S(=O)(=O)O)c2c(N=Nc3ccccc3)c(O)ccc2c1 [C.I. Acid Orange 10] | –
18 | – | 137.8 | – | 137.7 | CC1=NN(c2ccccc2)C(=O)C1 [1-Phenyl-3-methyl-5-pyrazolone] | –
19 | 279 | – | – | 282.3 | CO[C@H]1/C=C/O[C@@]2(C)Oc3c(C)c(O)c4c(O)c(c(/C=N/N5CCN(C)CC5)c(O)c4c3C2=O)NC(=O)/C(C)=C\C=C\[C@H](C)[C@H](O)[C@@H](C)[C@@H](O)[C@@H](C)[C@H](OC(C)=O)[C@@H]1C [Rifampicin] | –
20 | – | 137.7 | – | – | Cc1ccc(N)cc1S(=O)(=O)O [5-Amino-2-methylbenzenesulfonic acid] | –

Row | collision cross section in nitrogen [1] [Å²] | collision cross section in nitrogen [2] [Å²] | collision cross section in nitrogen [3] [Å²] | collision cross section in nitrogen [4] [Å²] | SMILES | other results
21 | 133.3 | – | – | 121.4 | C[N+](C)(C)CC(=O)[O-] [Betaine] | –
22 | – | – | 173.1 | 173.2 | CCOc1cc([N+](=O)[O-])c(OCC)cc1N1CCOCC1 [4-(2,5-Diethoxy-4-nitrophenyl)morpholine] | –
23 | – | 129.1 | – | – | N#CCc1cccc(C(F)(F)F)c1 [[3-(Trifluoromethyl)phenyl]acetonitrile] | –
24 | – | 169.9 | – | – | CCCCC(CC)COC(=O)c1ccc(O)cc1 (stereo not drawn) [2-Ethylhexyl p-hydroxybenzoate] | –
25 | – | 151 | – | – | CCC(C(=O)NC(N)=O)c1ccccc1 (stereo not drawn) [Ethylphenylacetylurea] | –
26 | 277.4 | 271.5 | 266.1 | 267 | COc1ccc2cc(S(=O)(=O)N[C@H](CC(=O)N[C@H](Cc3ccc(CN4[C@H](C)CCC[C@@H]4C)cc3)C(=O)N(C)C(C)C)c3ccc4c(c3)OCO4)ccc2c1 | –
27 | – | – | – | – | CCNc1ccc(C(=C2C=CC(=[N+](CC)CC)C=C2)c2ccc(N(CC)CC)cc2)c2ccccc12 [Basic Blue 7] | collision cross section in nitrogen (ion source: APCI, ion mode: Positive, ion type: [M]+ (permanent cation)): 241.9 Å²; collision cross section in nitrogen (ion source: ESI, ion mode: Positive, ion type: [M]+ (permanent cation)): 240.6 Å²
28 | – | 178.1 | – | – | C[C@]12CC[C@@H]3c4ccc(O)cc4CC[C@H]3[C@@H]1C[C@@H](O)[C@@H]2O [Estriol] | –
29 | 240.5 | 248.6 | 245 | 244.1 | CCCC[C@H]1CN(CC2CCOCC2)C(=O)OC12CCN(C1(C)CCN(C(=O)c3c(C)ncnc3C)CC1)CC2 | collision cross section in nitrogen [5]: 239.9 Å²
30 | – | – | – | – | c1csc(-c2ccc(-c3cccs3)s2)c1 [alpha-Terthiophene] | collision cross section in nitrogen [5]: 146.4 Å²
31 | – | 133.2 | – | – | O=C(O)c1cccc(C(=O)O)c1 [1,3-Benzenedicarboxylic acid] | –
32 | – | – | 163.6 | 166.8 | Cc1ccc(N=Nc2c(O)ccc3ccccc23)c(C)c1 [C.I. Solvent Orange 7] | –
33 | 172.2 | – | 154.8 | 154.9 | CCNc1nc(NC(C)(C)C)nc(OC)n1 [Terbumeton] | –
34 | 215.2 | – | – | 177.2 | C[C@H]1C[C@H]2[C@@H]3CCC4=CC(=O)C=C[C@]4(C)[C@@]3(F)[C@@H](O)C[C@]2(C)[C@@]1(O)C(=O)CO [Betamethasone] | –
35 | 181.5 | – | – | – | CC1(C)CCC[C@]2(C)[C@H]3CC(=O)O[C@]3(C)CC[C@@H]12 [(3aR)-(+)-Sclareolide] | –
36 | – | 128.7 | – | – | O=[N+]([O-])c1ccc(O)cc1C(F)(F)F [3-(Trifluoromethyl)-4-nitrophenol] | –
37 | – | – | 158.5 | 159.3 | Clc1cc(Cl)c2c(c1)N=C1CCCCCN1C2 | –
38 | – | 152.9 | – | – | O=C(Oc1cccc(O)c1)c1ccccc1 [Resorcinol monobenzoate] | –
39 | 210.5 | 214.2 | – | – | Cc1cc(SC2=C(O)C[C@@](CCc3ccc(N)cc3)(C(C)C)OC2=O)c(C(C)(C)C)cc1CO [CI-1029] | –
40 | – | 125.3 | – | – | NNC(=O)c1ccncc1 [Isoniazid] | –

Row | SMILES | collision cross section in nitrogen [1] [Å²] | collision cross section in nitrogen [2] [Å²] | collision cross section in nitrogen [3] [Å²] | collision cross section in nitrogen [4] [Å²] | other results
41 | O=C(O)C(F)(F)C(F)(F)C(F)(F)C(F)(F)C(F)(F)C(F)(F)C(F)(F)C(F)(F)C(F)(F)F [Perfluorodecanoic acid] | – | 175.1 | – | – | –
42 | CC1(C)[C@H](/C=C2\CCSC2=O)[C@@H]1C(=O)OCc1coc(Cc2ccccc2)c1 [Kadethrin] | 192.5 | – | – | – | –
43 | O=C(NC(=O)c1cc(F)c(F)cc1Cl)Nc1cc(F)ccc1N1CCC(C(=O)O)CC1 [AVE2865] | 195.9 | 196.2 | 202.7 | 202.4 | –
44 | O=C(Nc1ccc2[nH]ccc2c1)c1cc2cc(F)ccc2n1Cc1cccc(F)c1 | 202.1 | 193.8 | 195.9 | 195.7 | –
45 | CC(C)(c1cc(Cl)c(O)c(Cl)c1)c1cc(Cl)c(O)c(Cl)c1 [2,2',6,6'-Tetrachlorobisphenol A] | – | 184.3 | – | – | –
46 | CC(C)N(C(=O)CCl)c1ccccc1 [Propachlor] | 161.5 | – | 143.4 | 143.2 | –
47 | CC(c1ccc(O)cc1)c1ccc(O)cc1 [Bisphenol E] | – | 158.3 | – | – | –
48 | O=S1(=O)OCC2C(CO1)C1(Cl)C(Cl)=C(Cl)C2(Cl)C1(Cl)Cl (stereo not drawn) [Endosulfan sulfate] | – | 173.3 | – | – | –
49 | CCOC(=O)CP(=O)(OCC)OCC [Triethyl phosphonoacetate] | 155 | – | 143.6 | 143.7 | –
50 | CCS(=O)(=O)CCSP(=O)(OC)OC [Demeton-S-methyl sulfone] | 155.1 | – | 144.5 | 145 | –
51 | COc1ccc2c(c1)[C@]13CCCC[C@@H]1[C@H](C2)N(C)CC3 [Dextromethorphan hydrobromide] | – | – | 166.1 | 166.7 | –
52 | Cc1cc(Cc2ccc(N)c(C)c2)ccc1N [4,4'-Methylenebis(o-toluidine)] | – | – | 179.1 | 171.2 | –
53 | Cc1ccc(N(SC(F)(Cl)Cl)S(=O)(=O)N(C)C)cc1 [Tolylfluanid] | 177.6 | – | – | – | –
54 | CCOP(=S)(NC(C)C)Oc1ccccc1C(=O)OC(C)C (stereo not drawn) [Isofenphos] | 184.2 | 173.7 | – | – | –
55 | Cc1cc(C(C)(C)c2ccc(O)c(C)c2)ccc1O [3,3'-Dimethylbisphenol A] | – | 172.9 | – | – | –
56 | CCOP(=S)(S)OCC [O,O′-Diethyl hydrogen dithiophosphate] | – | 135 | – | – | –
57 | CCCOc1nn(C(=O)NS(=O)(=O)c2ccccc2C(=O)OC)c(=O)n1C [Propoxycarbazone-sodium] | – | 193.2 | – | – | –
